Converted amounts (≈) assume the structure as drawn. Where two headings read alike, the source gives them in different places.
How the values were obtained:
[1] = Pharmacokinetic assay: plasma concentration by LC/MS/MS after single intravenous or peroral dose of 3 mg/kg; format: in vivo; conditions: 3 mg/kg IV dosing in mice
Procedure: The pharmacokinetic profiles of selected comparator compounds A-N in Table 6 and compounds of the invention were determined by measuring the compound concentration in plasma by LC/MS/MS following a single intravenous or peroral administration of the compounds at a dose of 3 mg/kg. The concentrations described are the mean plasma concentrations at each time point from three animals. Intravenous dose formulation was administered as a single bolus dose through the tail vein. Oral dose formulation was administered to animals by an oral gavage needle. In both cases the dose volume was 5.0 mL/kg. Blood was collected from anesthetized mice through a capillary guided into the retro-orbital plexus. The collected blood was centrifuged to obtain plasma and the compounds extracted into methanol prior to determining the compound concentration by LC/MS/MS. The results are shown graphically in FIG. 1 and for the AUC and CL parameters in Table 6.

[2] = tested on: FtsZ-G196A Staphylococcus aureus (Isolate ID GG/190723/sa/1.2); assay: Bacterial assay: MIC, FtsZ G196A mutant strain; format: cell-based
Procedure: (§1) Compounds are tested for antimicrobial activity by susceptibility testing in liquid or on solid media. Minimum inhibitory concentrations (MICs) for compounds against each strain are determined by the broth microdilution or agar dilution method according to the guidelines of the Clinical Laboratories and Standards Institute, formerly the National Committee for Clinical Laboratory Standards (Clinical Laboratories and Standards Institute. Methods for Dilution Antimicrobial Susceptibility Tests for Bacteria That Grow Aerobically; Approved Standard—Seventh Edition. Document M7-A7. CLSI, Wayne, Pa., 2006; Clinical Laboratories and Standards Institute). The bacterial strains tested include S. aureus (Staphylococcus aureus (Isolate ID ATCC 29213)) and an FtsZ mutant of this isolate (FtsZ-G196A Staphylococcus aureus (Isolate ID GG/190723/sa/1.2)). Compound MICs were determined to be in the following activity ranges “A” activity≦0.25 μg/mL; “B” activity>0.25 μg/mL-1.0 μg/mL; “C” activity>1.0 μg/mL-16 μg/mL; “D” activity>16 μg/mL and ND=not determined. The bracketed entries indicate entantiomer(s) and their activity.
The comparative activity of selected compounds having a bromo-substituted oxazole against their corresponding non-brominated analogues is shown in Table 4.

[3] = tested on: Staphylococcus aureus (Isolate ID ATCC 29213); assay: Bacterial assay: MIC by broth microdilution or agar dilution (CLSI), S. aureus ATCC 29213; format: cell-based; conditions: Staphylococcus aureus
Outline: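 Activity is binned (A ≤0.25 μg/mL; B >0.25–1.0; C >1.0–16; D >16 μg/mL) from MICs determined per CLSI by broth microdilution or agar dilution, on S. aureus ATCC 29213 plus an FtsZ-G196A mutant strain.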

S. hominis ATCC 27844 = assay: MIC, staphylococcal panel; format: cell-based; conditions: Staphylococcus hominis, ATCC27844
Procedure: as §1
(§2) Selected compounds were also tested against a panel of target strains and their MICs are shown in Table 3 against the gold standard Linezolid. […] The activity of the compounds observed against S. aureus was also shown to be maintained within a narrow range across the staphylococcal panel tested.

[4] = tested on: S. saprophyticus ATCC 43809; assay: MIC, staphylococcal panel; format: cell-based; conditions: Staphylococcus saprophyticus, ATCC43809
Procedure: as §1, §2

[5] = tested on: S. epidermidis ATCC 12228; assay: MIC, staphylococcal panel; format: cell-based; conditions: Staphylococcus epidermidis, ATCC12228
Procedure: as §1, §2

[6] = tested on: S. aureus ATCC 19636 (Smith); assay: MIC, staphylococcal panel; format: cell-based; conditions: Staphylococcus aureus, ATCC19636
Procedure: as §1, §2

[7] = tested on: S. haemolyticus ATCC 29970; assay: MIC, staphylococcal panel; format: cell-based; conditions: Staphylococcus haemolyticus, ATCC29970
Procedure: as §1, §2

S. warneri ATCC 49454 = assay: MIC, staphylococcal panel; format: cell-based; conditions: Staphylococcus warneri, ATCC49454
Procedure: as §1, §2

[8] = tested on: S. lugdunensis ATCC 43809; assay: MIC, staphylococcal panel; format: cell-based; conditions: Staphylococcus lugdunensis, ATCC43809
Procedure: as §1, §2

[9] = tested on: S. aureus ATCC 43300 (MRSA); assay: microbe, parasite or virus in culture; format: cell-based; conditions: Staphylococcus aureus
Procedure: as §1, §2

[10] = tested on: S. aureus ATCC BAA-44 (MDRSA); assay: microbe, parasite or virus in culture; format: cell-based; conditions: Staphylococcus aureus, ATCCBAA44
Procedure: as §1, §2

[11] = read-out: MIC (μg/mL) G196A mutant strain
[12] = ATCC29213, read-out: MIC (μg/mL) S. aureus (ATCC29213), Table 5, racemate and enantiomers
[13] = ATCC29213, read-out: S. aureus MIC (μg/mL) Activity Range, S. aureus (ATCC29213)
[14] = ATCC29213, Staphylococcus aureus ATCC 29213, Table 3 panel
[15] = read-out: MIC (μg/mL) FtsZ G196A mutant strain

Row | Compound | MIC [2, 11] | MIC [3, 12] | MIC [3, 13] | MIC [2, 15] | further results
1 | NC(=O)c1c(F)ccc(OC(CO)c2nc(-c3ccc(C(F)(F)F)cc3)c(Br)o2)c1F (racemic) [Compound 38, 3-(1-(5-bromo-4-(4-(trifluoromethyl)phenyl)oxazol-2-yl)-2-hydroxyethoxy)-2,6-difluorobenzamide] | 4 µg/mL (≈ 7.89 µM) | 0.25 µg/mL (≈ 0.493 µM) | < 0.25 µg/mL |  | AUC [1]: 6700 ng·h/mL; clearance ([1]; mouse, plasma): 7 mL/min/kg
2 | NC(=O)c1c(F)ccc(OC(CO)c2nc(-c3ccc(F)cc3F)c(Br)o2)c1F (racemic) [Compound 233, 3-(1-(5-bromo-4-(2,4-difluorophenyl)oxazol-2-yl)-2-hydroxyethoxy)-2,6-difluorobenzamide] | 8 µg/mL (≈ 16.8 µM) | 0.25 µg/mL (≈ 0.526 µM) | < 0.25 µg/mL |  | MIC (S. hominis ATCC 27844): 0.5 µg/mL (≈ 1.05 µM); MIC [4]: 0.5 µg/mL (≈ 1.05 µM); MIC [5]: 0.5 µg/mL (≈ 1.05 µM); MIC [6]: 0.25 µg/mL (≈ 0.526 µM); MIC [7]: 0.5 µg/mL (≈ 1.05 µM); MIC (S. warneri ATCC 49454): 0.5 µg/mL (≈ 1.05 µM); MIC [8]: 0.5 µg/mL (≈ 1.05 µM); clearance ([1]; mouse, plasma): 18 mL/min/kg; AUC ([1]; mouse, plasma, read-out: AUC): 2300 ng·h/mL; MIC [9]: 0.5 µg/mL (≈ 1.05 µM); MIC [10]: 0.25 µg/mL (≈ 0.526 µM); MIC [3, 14]: 0.25 µg/mL (≈ 0.526 µM)
3 | NC(=O)c1c(F)ccc(O[C@@H](CO)c2nc(-c3ccc(C(F)(F)F)cc3)c(Br)o2)c1F (single isomer, unassigned) [Compound 38A] | 64 µg/mL (≈ 126 µM) | 16 µg/mL (≈ 31.5 µM) | 1 to 16 µg/mL (≈ 1.97 to 31.5 µM) |  | clearance ([1]; mouse, plasma): 6 mL/min/kg; AUC ([1]; mouse, plasma, read-out: AUC): 7800 ng·h/mL
4 | NC(=O)c1c(F)ccc(O[C@H](CO)c2nc(-c3ccc(C(F)(F)F)cc3)c(Br)o2)c1F (single isomer, unassigned) [Compound 38B] | 2 µg/mL (≈ 3.94 µM) | 0.125 µg/mL (≈ 0.246 µM) | < 0.25 µg/mL |  | MIC (S. hominis ATCC 27844): 0.125 µg/mL (≈ 0.246 µM); MIC [4]: 0.06 µg/mL (≈ 0.118 µM); MIC [5]: 0.125 µg/mL (≈ 0.246 µM); MIC [6]: 0.125 µg/mL (≈ 0.246 µM); MIC [7]: 0.125 µg/mL (≈ 0.246 µM); MIC (S. warneri ATCC 49454): 0.25 µg/mL (≈ 0.493 µM); MIC [8]: 0.25 µg/mL (≈ 0.493 µM); clearance ([1]; mouse, plasma): 12 mL/min/kg; AUC ([1]; mouse, plasma, read-out: AUC): 4000 ng·h/mL; MIC [9]: 0.125 µg/mL (≈ 0.246 µM); MIC [10]: 0.125 µg/mL (≈ 0.246 µM); MIC [3, 14]: 0.125 µg/mL (≈ 0.246 µM)
5 | COc1ccc(-c2nc([C@H](C)Oc3ccc(F)c(C(N)=O)c3F)oc2Br)cc1 [Compound 5A] | > 256 µg/mL | 16 µg/mL (≈ 35.3 µM) | 1 to 16 µg/mL (≈ 2.21 to 35.3 µM) |  | 
6 | COc1ccc(-c2nc([C@@H](C)Oc3ccc(F)c(C(N)=O)c3F)oc2Br)cc1 [Compound 5B] | 16 µg/mL (≈ 35.3 µM) | 0.5 µg/mL (≈ 1.1 µM) | 0.25 to 1 µg/mL (≈ 0.552 to 2.21 µM) | 16 µg/mL (≈ 35.3 µM) | 
7 | C[C@@H](Oc1ccc(F)c(C(N)=O)c1F)c1nc(-c2ccc(C(F)(F)F)cc2)co1 [Compound 183, (R)-2,6-difluoro-3-(1-(4-(4-(trifluoromethyl)phenyl)oxazol-2-yl)ethoxy)benzamide] |  |  | 1 to 16 µg/mL (≈ 2.43 to 38.8 µM) | > 256 µg/mL | 
8 | C[C@@H](Oc1ccc(F)c(C(N)=O)c1F)c1nc(-c2ccc(C(F)(F)F)cc2)c(Br)o1 [Compound 184, (R)-3-(1-(5-bromo-4-(4-(trifluoromethyl)phenyl)oxazol-2-yl)ethoxy)-2,6-difluorobenzamide] |  |  | < 0.25 µg/mL | 0.5 µg/mL (≈ 1.02 µM) | 
9 | NC(=O)c1c(F)ccc(O[C@@H](CO)c2nc(-c3ccc(F)cc3F)c(Br)o2)c1F [Compound 233A, (S)-3-(1-(5-bromo-4-(2,4-difluorophenyl)oxazol-2-yl)-2-hydroxyethoxy)-2,6-difluorobenzamide] | > 256 µg/mL | 32 µg/mL (≈ 67.3 µM) | > 16 µg/mL |  | 
10 | NC(=O)c1c(F)ccc(O[C@H](CO)c2nc(-c3ccc(F)cc3F)c(Br)o2)c1F [Compound 233B, (R)-3-(1-(5-bromo-4-(2,4-difluorophenyl)oxazol-2-yl)-2-hydroxyethoxy)-2,6-difluorobenzamide] | 8 µg/mL (≈ 16.8 µM) | 0.25 µg/mL (≈ 0.526 µM) | < 0.25 µg/mL |  | 
11 | COc1ccc(-c2coc([C@@H](C)Oc3ccc(F)c(C(N)=O)c3F)n2)cc1 [Compound 268B] |  |  | 1 to 16 µg/mL (≈ 2.67 to 42.7 µM) | > 256 µg/mL | 
12 | COC(=O)NCC(Oc1ccc(F)c(C(N)=O)c1F)c1nc(-c2ccc(C(F)(F)F)cc2)co1 (centres unmarked) [Compound 287, methyl (2-(3-carbamoyl-2,4-difluorophenoxy)-2-(4-(4-(trifluoromethyl)phenyl)oxazol-2-yl)ethyl)carbamate] |  |  | > 16 µg/mL | > 256 µg/mL | 
13 | COC(=O)NCC(Oc1ccc(F)c(C(N)=O)c1F)c1nc(-c2ccc(C(F)(F)F)cc2)c(Br)o1 (centres unmarked) [Compound 288, methyl (2-(5-bromo-4-(4-(trifluoromethyl)phenyl)oxazol-2-yl)-2-(3-carbamoyl-2,4-difluorophenoxy)ethyl)carbamate] |  |  | 0.25 to 1 µg/mL (≈ 0.443 to 1.77 µM) | 16 µg/mL (≈ 28.4 µM) | 
14 | NC(=O)c1c(F)ccc(OC(CNC(=O)c2ccccc2)c2nc(-c3ccc(C(F)(F)F)cc3)co2)c1F (centres unmarked) [Compound 289, 3-(2-benzamido-1-(4-(4-(trifluoromethyl)phenyl)oxazol-2-yl)ethoxy)-2,6-difluorobenzamide] |  |  | 1 to 16 µg/mL (≈ 1.88 to 30.1 µM) | > 256 µg/mL | 
15 | NC(=O)c1c(F)ccc(OC(CNC(=O)c2ccccc2)c2nc(-c3ccc(C(F)(F)F)cc3)c(Br)o2)c1F (centres unmarked) [Compound 292, 3-(2-benzamido-1-(5-bromo-4-(4-(trifluoromethyl)phenyl)oxazol-2-yl)ethoxy)-2,6-difluorobenzamide] |  |  | < 0.25 µg/mL | 1 µg/mL (≈ 1.64 µM) | 
16 | CC(=O)NC[C@H]1CN(c2ccc(N3CCOCC3)c(F)c2)C(=O)O1 [Linezolid, reference compound] |  |  |  |  | MIC (S. hominis ATCC 27844; S. hominis ATCC 27844, read-out: MIC): 1 µg/mL (≈ 2.96 µM); MIC ([4]; S. saprophyticus ATCC 43809, read-out: MIC): 2 µg/mL (≈ 5.93 µM); MIC ([5]; S. epidermidis ATCC 12228, read-out: MIC): 1 µg/mL (≈ 2.96 µM); MIC ([6]; S. aureus ATCC 19636 (Smith), read-out: MIC): 2 µg/mL (≈ 5.93 µM); MIC ([7]; S. haemolyticus ATCC 29970, read-out: MIC): 1 µg/mL (≈ 2.96 µM); MIC (S. warneri ATCC 49454; S. warneri ATCC 49454, read-out: MIC): 2 µg/mL (≈ 5.93 µM); MIC ([8]; S. lugdunensis ATCC 43809, read-out: MIC): 1 µg/mL (≈ 2.96 µM); MIC ([9]; S. aureus ATCC 43300 (MRSA), read-out: MIC): 2 µg/mL (≈ 5.93 µM); MIC ([10]; S. aureus ATCC BAA-44 (MDRSA), read-out: MIC): 1 µg/mL (≈ 2.96 µM); MIC ([3]; ATCC29213, Staphylococcus aureus ATCC 29213, Table 3 panel, read-out: MIC): 2 µg/mL (≈ 5.93 µM)
